Results on 4 molecules are retold here after ChEMBL document CHEMBL5338813 (J Med Chem, 2023).

Data set [1] relates to Cryptosporidium parvum. Nature of the data set: Antiparasitic activity against Cryptosporidium parvum infected in human HCT-8 cells assessed as parasitic growth inhibition incubated for 48 hrs by fluorescence microscopic analysis. To be noted: HCT-8, 48 h. The class given is functional, organism-based.
In data set [2] the test system is HCT-8. The data set is described as follows: Cytotoxicity against human HCT-8 cells assessed as reduction in cell number upto 50 uM incubated for 48 hrs by. The class given is toxicity, cell-based. To be noted: hct-8, 48 h.
Data set [3] deals with T1, hERG (KCNH2) (Homo sapiens, UniProt Q12809). The data set is described as follows: (§1) Displacement of [3H]Dofetilide from human ERG at 30 uM by automated patch clamp assay relative to control. The following applies: probe [3H]Dofetilide, read-out: Activity. A general note: Loss of bound radioactivity is the signal in a displacement assay; it reports binding, not function.
T1 sequence (Q12809 whole entry): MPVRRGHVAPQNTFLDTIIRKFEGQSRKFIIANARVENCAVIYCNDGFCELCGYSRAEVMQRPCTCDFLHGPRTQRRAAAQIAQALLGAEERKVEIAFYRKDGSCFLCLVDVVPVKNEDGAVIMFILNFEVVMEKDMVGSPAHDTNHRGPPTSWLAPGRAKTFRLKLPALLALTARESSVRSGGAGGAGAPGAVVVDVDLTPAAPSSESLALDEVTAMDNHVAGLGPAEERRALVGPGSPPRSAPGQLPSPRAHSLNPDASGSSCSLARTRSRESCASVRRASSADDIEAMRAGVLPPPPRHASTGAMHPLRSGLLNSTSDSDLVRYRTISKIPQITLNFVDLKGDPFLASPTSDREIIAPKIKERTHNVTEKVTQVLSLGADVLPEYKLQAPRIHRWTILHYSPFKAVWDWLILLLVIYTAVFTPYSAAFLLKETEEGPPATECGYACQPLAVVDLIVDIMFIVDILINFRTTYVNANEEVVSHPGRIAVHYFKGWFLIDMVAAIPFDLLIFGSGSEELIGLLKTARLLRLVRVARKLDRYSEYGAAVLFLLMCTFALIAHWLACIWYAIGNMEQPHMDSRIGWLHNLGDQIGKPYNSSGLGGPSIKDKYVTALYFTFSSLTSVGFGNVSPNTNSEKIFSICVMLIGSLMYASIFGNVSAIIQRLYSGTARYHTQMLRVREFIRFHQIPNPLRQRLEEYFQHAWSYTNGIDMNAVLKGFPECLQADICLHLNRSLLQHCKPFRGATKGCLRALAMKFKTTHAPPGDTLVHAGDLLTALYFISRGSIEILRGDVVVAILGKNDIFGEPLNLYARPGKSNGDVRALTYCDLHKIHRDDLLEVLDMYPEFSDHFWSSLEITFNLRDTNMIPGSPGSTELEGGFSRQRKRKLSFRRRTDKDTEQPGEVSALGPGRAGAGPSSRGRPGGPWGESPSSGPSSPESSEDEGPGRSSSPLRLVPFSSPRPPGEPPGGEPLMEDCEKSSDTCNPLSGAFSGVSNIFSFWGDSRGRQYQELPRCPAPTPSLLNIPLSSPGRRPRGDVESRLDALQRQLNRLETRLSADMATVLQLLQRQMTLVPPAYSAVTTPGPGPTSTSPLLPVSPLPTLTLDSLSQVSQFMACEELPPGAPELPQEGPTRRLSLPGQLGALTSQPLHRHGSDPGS

Data set [4] is described as follows: Metabolic stability in mouse liver microsomes assessed as half life measured upto 60 mins. The class given is ADME, Microsome. To be noted: 1 h. For orientation: Liver microsomes are vesicles of endoplasmic reticulum, rich in cytochrome P450 enzymes.
Data set [5] is described as follows: Metabolic stability in mouse intestinal S9 fraction assessed as intrinsic clearance measured upto 60 mins. The class given is ADME, subcellular, Intestine. The following applies: read-out: CLH.
The nature of data set [6]: AUC in mouse plasma at 5 mg/kg, po measured upto 24 hrs by LC-MS/MS analysis. The class given is ADME, organism-based. The arrangement: dose 5 mg/kg, time < 24 hrs, route po. To be noted: in vivo.
Data set [7] can be described thus: Plasma protein binding in human at 1 uM incubated for 30 mins by LC-MS/MS analysis. The following applies: 0.5 h. The class given is ADME, cell-free.
The nature of data set [8]: Plasma protein binding in mouse at 1 uM incubated for 30 mins by LC-MS/MS analysis. The class given is ADME, cell-free. To be noted: 0.5 h.
Data set [9] is described as follows: Metabolic stability in mouse liver microsomes assessed as intrinsic clearance measured upto 60 mins. The class given is ADME, Microsome. The following applies: read-out: CLH.
A short description of data set [10]: Metabolic stability in mouse intestinal S9 fraction assessed as half life measured upto 60 mins. The class given is ADME, subcellular, Intestine. The following applies: s9, 1 h.
The nature of data set [11]: Tmax in mouse plasma at 5 mg/kg, po measured upto 24 hrs by LC-MS/MS analysis. The following applies: in vivo. The class given is ADME, organism-based.
Data set [12] can be described thus: Cmax in mouse Jejunum at 5 mg/kg, po measured upto 24 hrs by LC-MS/MS analysis. The following applies: in vivo. The class given is ADME, organism-based. The arrangement: dose 5 mg/kg, time < 24 hrs, route po.
Data set [13] in a line: Cmax in mouse plasma at 5 mg/kg, po measured upto 24 hrs by LC-MS/MS analysis. The class given is ADME, organism-based. The arrangement: time < 24 hrs, dose 5 mg/kg, route po. The following applies: in vivo.
The target of data set [14] is Voltage-gated inwardly rectifying potassium channel KCNH2 (Homo sapiens, UniProt Q12809). The description is as §1. To be noted: 30 µM.
Chain of Voltage-gated inwardly rectifying potassium channel KCNH2 (Q12809 whole entry): as above
Data set [15] in a line: Tmax in mouse Jejunum at 5 mg/kg, po measured upto 24 hrs by LC-MS/MS analysis. The following applies: in vivo. The class given is ADME, organism-based.
A short description of data set [16]: AUC in mouse Jejunum at 5 mg/kg, po measured upto 24 hrs by LC-MS/MS analysis. The following applies: in vivo. The arrangement: dose 5 mg/kg, time < 24 hrs, route po. The class given is ADME, organism-based.
Data set [17] has as its system Cryptosporidium parvum. The data set is described as follows: Antiparasitic activity against Cryptosporidium parvum infected in mouse assessed as relapse in parasite growth at >=5 mg/kg, po pre-infected with parasite for 7 days followed by compound addition twice daily for 4 days. The class given is functional, organism-based. The following applies: time 4.0 day.

Data set [18] has as its system Cryptosporidium parvum. The data set is described as follows: Antiparasitic activity against Cryptosporidium parvum infected in mouse assessed as relapse in parasite growth at 5 mg/kg, po pre-infected with parasite for 7 days followed by compound addition twice daily for 4 days. The class given is functional, organism-based. The following applies: time 4.0 day.
Data set [19] has as its target T1, hERG (KCNH2). The data set is described as follows: Inhibition of human ERG expressed in CHO cells at 10 uM by automated patch clamp assay relative to control. To be noted: CHO cells that express hERG. The class given is cell-based. On the technique in general: The patch-clamp technique gives a direct electrical read-out from membranes.
Data set [20] deals with Cryptosporidium parvum. The data set is described as follows: Antiparasitic activity against Cryptosporidium parvum infected in mouse assessed as reduction in parasitic growth at >= 5 mg/kg, po pre-infected with parasite for 7 days followed by compound addition twice daily for 4 days. The class given is functional. The arrangement: scale not given: the % may be the effect or the level left. To be noted: time 4 day.

Data set [21] concerns the target T1, hERG (KCNH2). Nature of the data set: Inhibition of human ERG expressed in CHO cells at 1 uM by automated patch clamp assay relative to control. The class given is cell-based. To be noted: CHO cells that express hERG.
In data set [22] the target is T1, hERG (KCNH2). Nature of the data set: Inhibition of human ERG expressed in CHO cells at 30 uM by automated patch clamp assay relative to control. The class given is cell-based. To be noted: CHO cells that express hERG.

Molecules are shown by their SMILES. Active and inactive are the calls of the source. The calls are words filed in the database; no cut-off is given here. A value given as a limit tells only on which side of the number the result lay.

One may read the EC50 as the concentration needed to bring the measured effect to its halfway point. With `O=C(Cc1ccc(F)c(CF)c1)N1CCN(c2ccc3nncn3n2)CC1`, in data set [1], the EC50 is 760 nM. Also, the Activity result in data set [2] is listed as “Non-Toxic”. In data set [3], the inhibition at 30 µM worked out at 38%.
Broadly, the Tmax is the time from dosing to the highest level. For orientation: Cmax means the highest concentration seen after dosing. Consider `O=C(Cc1ccc(Cl)c(Cl)c1)N1CCN(c2ccc3nncn3n2)CC1`, for which the t1/2 in data set [4] is 1.38 h; in data set [10], greater than 2 h. Also, the figures for the microsomal CLint in [5] and in [9] were less than 5.8 µL/min/mg and 85.2 µL/min/mg, respectively. Moreover, the AUC was determined as 3387 ng·h/mL in [6] and 3013 ng·h/g in [16]. The PPB was 98.2% in data set [7] and 92.7% in data set [8]. For the same molecule, the Tmax in data set [11] and in data set [15] was 1 h in each case. Further, the Cmax in data set [12] is 317 ng/g; in data set [13] it was 532 ng/mL. In data set [14], this molecule returned an Activity of 46%.
For `O=C(Cc1ccc(F)c(C(F)(F)F)c1)N1CCN(c2ccc3nncn3n2)CC1`, the t1/2 in data set [4] and in [10] was greater than 2 h throughout. The microsomal CLint in data set [5] was less than 5.8 µL/min/mg; in data set [9], less than 57.8 µL/min/mg. Also, the AUC in data set [6] was 3300 ng·h/mL; in [16], 2998 ng·h/g. Also, in data set [17], the result was Active. Further, the PPB in data set [8] was 51.8%. Further, the Tmax worked out at 1 h in data set [11] and 2 h in data set [15]. For the same molecule, in data set [18], the result was inactive. The EC50 in [1] was found to be 70 nM. Moreover, the Activity result in data set [2] was “Non-Toxic”; in [14], 43%; in data set [20] it was greater than 99%. Also, in data set [19], the inhibition at 10 µM came to 58%. Further, the Cmax in data set [12] was 299 ng/g; in [13] it was 568 ng/mL. The molecule also registered an inhibition at 1 µM in [21] of 15%. Besides, in data set [22], the inhibition at 30 µM worked out at 84%.
`O=C(Cc1ccc(F)c(C(F)F)c1)N1CCN(c2ccc3nncn3n2)CC1`: the EC50 in data set [1] came to 470 nM. Besides, the Activity result in [2] was “Non-Toxic”. Besides, the inhibition at 30 µM in data set [3] was 23%.
